Laboratory results from US5698529A, “Chemotherapeutic compositions” (Supratek Pharma, Inc., priority 1996, dated 1997).
≈ marks a conversion by molar mass, not a printed value.

Tests used:
[1] = system: human ovarian carcinoma cells (CRL157); assay: Cytotoxicity to human ovarian carcinoma cells (CRL157), Example 1; assay type: cell-based; settings: Ovarian carcinoma cell
Procedure: (§1) A. A block copolymer of poly(oxyethylene)-poly(oxypropylene) in which N=0.25 (Pluronic F-68) is diluted with RPMI 1640 medium to a final concentration of 2.0% at 4° C. The mixture is incubated for 30 minutes at 37° C. and then sterilely filtered through a 0.22 μm filter. An equal volume of a solution of 200 μg daunorubicin in RPMI 1640 medium is added and this mixture is incubated for 30 minutes at 37° C.
(§2) B. Human ovarian carcinoma cells (CRL157) are precultured in 1% solution of the same block copolymer but without daunorubicin in RPMI 1640 medium supplemented with 10% calf fetal serum. The preparation of part A is added and the mixture is incubated for 60 minutes at 37° C. and the cells then washed three times with RPMI 1640 and cultured in RPMI 1640 supplemented with 10% calf fetal serum for 3 days {Prep. A}. Cytotoxicity is measured, both for this preparation and a parallel preparation of free daunorubicin {Prep. B}, using the method of Alley et al., Cancer Res., 48, 589-601 (1988).

[2] = system: human small cell carcinoma of lung (H-69); assay: Cytotoxicity to human small cell carcinoma of lung (H-69), Example 1; assay type: cell-based
Procedure: as §1
as §2, with “(1988). The results are as follows:” for “(1988).”
Following the same procedure, cytotoxicity is determined against human small cell carcinoma of lung (H-69): […]

[3] = system: normal human mononuclear cells; assay: Cytotoxicity in normal human mononuclear cells, Example 4; assay type: cell-based
Procedure: as §2, with “(1988). The results are as follows:” for “(1988).”
A. A 1:1.5 mixture of block copolymers of poly(oxyethylene)-poly(oxypropylene) (pluronics P-85 and L-64) having individual ratios (n) of (oxypropylene) to (oxyethylene) blocks of 1.00 and 1.50, respectively, and a combined value (N) of 1.30, is diluted with RPMI 1640 medium to a final concentration of 2.0% at 4° C. The mixture is incubated for 30 minutes at 37° C. and then sterilely filtered through a 0.22 μm filter. An equal volume of a solution of 200 μg daunorubicin in RPMI 1640 medium is added and this mixture is incubated for 30 minutes at 37° C.
Daunorubicin in the composition of Example 3 is evaluated for cytotoxicity in (i) human T-lymphoma (Jurkat) cells as described in Example 1 and (ii) normal human mononuclear cells.

SKVLB cells = assay: cells; assay type: cell-based; settings: Homo sapiens
From the text: (§3) The antineoplastic agent vinblastine is incorporated into the block copolymer mixture described in Example 3.
(§4) The antineoplastic agent mitomycin C is incorporated into the block copolymer mixture described in Example 3.
(§5) The antineoplastic agent methotrexate is incorporated into the block copolymer mixture described in Example 3.
(§6) The antineoplastic agent daunorubicin is incorporated into the block copolymer mixture described in Example 3.

SKVO3 cells = assay: cells; assay type: cell-based; settings: Homo sapiens; SKVO3, drug-sensitive; read-out: IC50
From the text: as §3, §4, §5, §6

[4] = system: human breast cancer (MCF-7); assay: Cytotoxicity against daunorubicin-sensitive human breast cancer (MCF-7); assay type: cell-based; settings: MCF7
From the text: (§7) The daunorubicin composition of Example 3 {Prep. […] B}.

MCF-7AU = assay: Cytotoxicity against daunorubicin/verapamil-resistant MCF-7AU not expressing P-170; assay type: cell-based, human
From the text: as §7

Dox-MCF-7 = assay: Cytotoxicity against daunorubicin-resistant, verapamil-sensitive Dox-MCF-7 expressing P-170; assay type: cell-based, human
From the text: as §7

MTD in mice = settings: mouse, in vivo, ip, C57B1/6 female mice, 14 days
From the text: B and Prep. A, respectively}, and are observed for 14 days.
The MTD is defined as a dose which leads to no daunorubicin-deaths (any higher dose leads to the daunorubicin-related death of at least 1 animal per group). The experiment is repeated twice. The results are reproducible with less that 10% variation.

H-69 cells = assay: Cytotoxic activity of plasma of inoculated mice on H-69 cells; assay type: cell-based, human; settings: MTD i.v., plasma one hour after administration
Procedure: Anti-neoplastic activity is determined by evaluation of the cytotoxic activity of plasma of mammals inoculated with the test composition (see de Valeriola et el., Cancer Chemother. Pharmacol. 29, 133-140, 1991).
Groups (6 animals/group) of C57B1/6 7-week-old female mice are inoculated i.v. (via the tail vein) with free or micellar (N=1.3) daunorubicin obtained as described in Example 3 {Prep. B and Prep. A, respectively}. Drug concentrations (MTD) are adjusted so that a maximum volume of 0.1 mL is injected in each mouse. The experiment is repeated twice.
To obtain plasma samples, blood (10 μl) is collected from the tail artery one hour after drug administration, diluted 1:10 with sterile RPMI 1640 medium, and centrifuged at 400 g for 15 minutes. […] The cells are incubated for two hours at 37° C. and 5% CO2, and then washed three times with RPMI 1640. The pretreated cells are incubated in RPMI 1640 supplemented with 10% fetal calf serum at 37° C. and 5% CO2 for three days, after which cytotoxicity is determined as described in Example 1.

COc1cccc2c1C(=O)c1c(O)c3c(c(O)c1C2=O)C[C@@](O)(C(C)=O)C[C@@H]3O[C@H]1C[C@H](N)[C@H](O)[C@H](C)O1 [Prep. B, daunorubicin]
inhibition at 0.016 µg/mL [1]: 1% | inhibition at 0.08 µg/mL [1]: 20% | inhibition at 0.4 µg/mL [1]: 38% | inhibition at 2 µg/mL [1]: 53% | inhibition at 10 µg/mL [1]: 81% | inhibition at 50 µg/mL [1]: 100% | inhibition at 0.0032 µg/mL [2]: 20% | inhibition at 0.016 µg/mL [2]: 42% | inhibition at 0.08 µg/mL [2]: 69% | inhibition at 0.4 µg/mL [2]: 91% | inhibition at 2 µg/mL [2]: 100% | inhibition at 10 µg/mL [2]: 100% | inhibition at 50 µg/mL [2]: 100% | inhibition at 0.0032 µg/mL [3]: 1% | inhibition at 0.016 µg/mL [3]: 18% | inhibition at 0.08 µg/mL [3]: 23% | inhibition at 0.4 µg/mL [3]: 58% | inhibition at 2 µg/mL [3]: 80% | inhibition at 10 µg/mL [3]: 100% | inhibition at 50 µg/mL [3]: 100% | IC50 (SKVLB cells): 5.85 µg/mL (≈ 11.1 µM) | IC50 (SKVO3 cells): 0.62 µg/mL (≈ 1.18 µM) | inhibition at 0.016 µg/mL [4]: 15% | inhibition at 0.08 µg/mL [4]: 43% | inhibition at 0.4 µg/mL [4]: 69% | inhibition at 2 µg/mL [4]: 91% | inhibition at 10 µg/mL [4]: 100% | inhibition at 50 µg/mL [4]: 100% | inhibition at 0.016 µg/mL (MCF-7AU; Homo sapiens): 3% | inhibition at 0.08 µg/mL (MCF-7AU; Homo sapiens): 9% | inhibition at 0.4 µg/mL (MCF-7AU; Homo sapiens): 37% | inhibition at 2 µg/mL (MCF-7AU; Homo sapiens): 65% | inhibition at 10 µg/mL (MCF-7AU; Homo sapiens): 89% | inhibition at 50 µg/mL (MCF-7AU; Homo sapiens): 100% | IC50 (in words) (MCF-7AU; resistant line MCF-7AU, statement for both resistant lines): higher IC50 's (is less toxic) | inhibition at 0.016 µg/mL (Dox-MCF-7; Homo sapiens): 2% | inhibition at 0.08 µg/mL (Dox-MCF-7; Homo sapiens): 7% | inhibition at 0.4 µg/mL (Dox-MCF-7; Homo sapiens): 39% | inhibition at 2 µg/mL (Dox-MCF-7; Homo sapiens): 62% | inhibition at 10 µg/mL (Dox-MCF-7; Homo sapiens): 86% | inhibition at 50 µg/mL (Dox-MCF-7; Homo sapiens): 100% | IC50 (in words) (Dox-MCF-7; resistant line Dox-MCF-7, statement for both resistant lines): higher IC50 's (is less toxic) | MTD at 336 h (MTD in mice): 2 mg/kg | Inhibition, % (H-69 cells; plasma dilution 1:20): 42% | Inhibition, % (H-69 cells; plasma dilution 1:200): 5% | Inhibition, % (H-69 cells; plasma dilution 1:2000): 0% | Inhibition, % (H-69 cells; plasma dilution 1:20000): 0%
